Measurements from US11015169B2, “Culture medium for pluripotent stem cells” (Kyoto University, priority 2014, dated 2021).

How the values were obtained:
Format in all cases: cell-based
[1] = test system: Human ES cell lines KhES-1; assay: Subculture of human ES cells in medium comprising a GSK3β inhibitor and a DYRK inhibitor, cell observation; conditions: KhES-1, no feeder cells, vitronectin-N-coated dish; for maintenance of the ES cells (stability), among the GSK3β inhibitors: combined with DYRK inhibitor ID-8 500 nM, 1-azakenpaullone 750 nM, kenpaullone 500 nM
Procedure: 25 mL of a solution in which a powder DMEM/F-12 medium (D0547, produced by Sigma-Aldrich) had been diluted two-fold with water, 1.4 mL of 6% sodium hydrogen carbonate solution, 0.75 mL of 1 M HEPES solution, 0.045 mL of 0.23 M ascorbic acid solution, 0.9 ML of ITS (Insulin-Transferrin-Selenium: 1 mg/ml-0.55 mg/ml-0.7 μg/ml) solution (ITS-G 41400-045, produced by Life Technologies), and 16.905 mL of water were mixed to obtain 45 mL of basal medium (340 mOsm, pH 7.2 to 7.5).
A GSK3β inhibitor (1-azakenpaullone (A3734, produced by Sigma-Aldrich), kenpaullone (1094-1, produced by BioVision), CHIR99021 (1386, produced by Axon Medchem), or BIO (B1686, produced by Sigma-Aldrich)), and a DYRK inhibitor (ID-8 (11786, produced by Sigma-Aldrich), harmine (Ser. No. 10/010,324, produced by Cayman Chemical), an indirubin analog 716 (6i) (ACS Medicinal Chemistry Letters, 2013, vol. 4, no. 1, pp. 22-26), INDY (405273, produced by Merck Millipore Corporation), L41 (MR-00023, produced by AdipoGen), or TG003 (4336, produced by R&D Systems)) were each added singly or in combination to the basal medium to thereby obtain a medium. The following are final concentrations in the medium.
Human ES cell lines KhES-1 (provided by Riken BioResource Center) were subcultured in the above medium. More specific details are below. The following culture was performed in the absence of feeder cells in a dish (vitronectin-N-coated dish) in which coating treatment was performed overnight using 1 μg of vitronectin-N (A14700 produced by Life Technologies) per 1 cm^2 of the culture dish.
ES cell colonies cultured in accordance with a standard method using a general-purpose medium for human ES cells (20% knockout serum replacement (10828-028, produced by Life Technology), 4 ng/ml of FGF2 (100-18B, produced by Peprotech)/DMEM/F-12 medium (11330-032, produced by Life Technology)) were rinsed once with PBS. A dispase solution (10 mg/ml dispase (Ser. No. 17/105,041, produced by Life Technologies)/DMEM/F-12) was added thereto so as to cover the cells, followed by being left to stand for 5 minutes. […]

[2] = test system: Human ES cell lines KhES-1; assay: Fold increase of cells within 6 days without passage
Procedure: (§1) A medium further comprising an NFAT inhibitor (tacrolimus (FK-506) (1007965, produced by Cayman Chemical)), in addition to a GSK3β inhibitor (1-azakenpaullone or kenpaullone) and a DYRK inhibitor (ID-8), was prepared as in Example 1. Using this medium, subculture and cell observation were performed as in Example 1. Separately from this, passage P1 was performed using this medium, as in Example 1, followed by culturing for 6 days without performing passage. Thereafter, the number of the cells was counted in accordance with a standard method, and, based on the counted number of cells, how many times the number of the cells increased within 6 days was calculated.

[3] = test system: Human ES cell lines KhES-1; assay: Subculture and cell observation in medium further comprising an NFAT inhibitor; conditions: tacrolimus added in addition to azakenpaullone and ID-8, FIG. 3A
Procedure: as §1

SMILES: O=C1Cc2c([nH]c3ccc(Br)cc23)-c2ncccc2N1 [1-azakenpaullone]
- maintenance of the ES cells (stability), among the GSK3β inhibitors [1]: most stable manner
- cell growth (fold increase of the cells), comparison of GSK3β inhibitors ([2]; GSK3β inhibitor with ID-8 and tacrolimus, FIG. 3B): accelerates the cell growth more than kenpaullone

SMILES: COc1ccc(-n2c(C)c([N+](=O)[O-])c3ccc(O)cc32)cc1 [ID-8]
- maintenance of the ES cells (stability), among the DYRK inhibitors ([1]; combined with 1-azakenpaullone 750 nM, ID-8 500 nM): most stable manner

SMILES: O=C1Cc2c([nH]c3ccc(Br)cc23)-c2ccccc2N1 [kenpaullone]
- maintenance of the ES cells (stability), among the GSK3β inhibitors [1]: most stable manner

SMILES: C=CC[C@@H]1/C=C(\C)C[C@H](C)C[C@H](OC)[C@H]2O[C@@](O)(C(=O)C(=O)N3CCCC[C@H]3C(=O)O[C@H](/C(C)=C/[C@@H]3CC[C@@H](O)[C@H](OC)C3)[C@H](C)[C@@H](O)CC1=O)[C@H](C)C[C@@H]2OC [tacrolimus]
- cell growth (fold increase of the cells) ([2]; tacrolimus added in addition to azakenpaullone and ID-8, FIG. 3B): notably accelerated
- maintenance of ES cells in an undifferentiated state [3]: ES cells are maintained in an undifferentiated state
